{
  "source": "patent US4537774A",
  "about": "“Hot-water extracts of neem bark” (priority 1980, dated 1985)",
  "key": {"sarcoma 180 solid tumor": {"tested_on": "sarcoma 180 solid tumor", "experiment": "Effects on sarcoma 180 solid tumor (Test IV)", "type": "in vivo, mouse", "conditions": "for Rating / T/C (%): Table IV; for T/C (%): tumor weight ratio", "protocol": "Test materials were prepared in the same manner as in Test III under (1).\nA cell suspension containing 1×10^8 cells per ml. was prepared in the same way as in Test III under (2). Four week old-ICR mice was innoculated subcutaneously on the back with 0.1 ml. of the suspension by means of a syringe.\nAs in Test III under (3), a group of 6 animals was used for each concentration of each test material.\nGrown tumor tissue was resected on the […] of the tumor cell transplantation and weighed. An average for the group of 6 animals was taken for the evaluation. The effect was evaluated on the basis of ratio of the average weight for the treated animals to that of the control animals (T/C). […] Ratios (T/C) of 100-71% were rated ineffective (-), of 70-51% plus 1 (+), of 50-21% plus 2 (++), and of 20-0% plus 3 (+++).\n(§1) The neem extracts produced in the above examples were tested for effects on sarcoma 180 ascites and solid tumors according to the methods described in the aforementioned Tests."}, "[1]": {"tested_on": "sarcoma 180 ascites tumor", "experiment": "Effects on sarcoma 180 ascites tumor (Test III)", "type": "in vivo, mouse", "conditions": "for Rating / T/C (%): Table III, i.p.; for T/C (%): TPCV ratio", "protocol": "A portion of each of the extraction fractions was suspended or dissolved in 0.5% suspension of carboxymethylcellulose (CMC) in a phosphate buffer saline solution (PBS commercially available from GIBCO Laboratories, containing ca. 9.5 mM phosphate) to a predetermined concentration.\nMouse sarcoma 180 tumor cells which have been subcultivated intraperitoneally in ICR mice were drawn from the mouse together with the ascites and diluted with physiological saline solution to a cell count of 10^8 per ml. The tumor cell suspension thus prepared was transplanted by means of a syringe intraperitoneally into 4 week-old male ICR mice at a dose of 0.1 ml. Consequently, the cell count transplanted per mouse was 1×10^7.\nThe test material as prepared above was intraperitoneally administered at a dose of 0.1 ml. per mouse for 4 days once a day from the next day of the transplantation of mouse sarcoma 180 tumor cells. A group of 6 mice was employed for each concentration of each test material. […] As a control was administered the CMC-containing PBS as described above only in the same way as above. The dose is expressed as weight per kg. bodyweight of mouse.\nOn the 7th day of transplantation of the tumor cells bodyweight of each mouse was measured (X). Then, ascites was thoroughly drawn from the mouse, followed by measurement of the bodyweight (Y). X-Y is taken as the amount of ascites.\nThe drawn ascites was then introduced into a hematocrit tube and then centrifuged at 15,000 G for 5 minutes using a hematocrit rotor at a low temperature. There was thus made determination of the ascitocrit value, that is, proportion of the cells present in the ascites which corresponded to the hematocrit value in hematology. The value multiplied by volume of the ascites gives the volume of the cells present in the ascites. This is designated as total packed cell volume (TPCV).\nEffect on the tumor was rated ineffective (-) when the TPCV ratio of the treated to the control (T/C) was 100-66%, plus 1 (+) when it was 65-41%, plus 2 (++) when it was 40-11%, and plus 3 (+++) when it was 10-0%.\nas §1"}, "mouse L-5178Y cells": {"tested_on": "mouse L-5178Y cells", "experiment": "Effects on mouse L-5178Y cells (Test II)", "type": "cell-based", "protocol": "A medium containing 1×10^5 cells/ml. was prepared using mouse L-5178Y cells cultivated on RPMI-1640 medium containing 10% fetal bovine serum for 3 days. The medium was placed in a 96-well U-type microplate in an amount of 50 μl. per well.\nA portion of the test material, which was one of the extracts according to the invention described in the above examples, was dissolved in the medium to a final concentration in the medium as shown in Table II below. The amount of the solution per well was 50 μl. The test material thus prepared was incubated in a carbon-dioxide incubator at 37° C. for 2 days. After completion of the incubation, the cells were collected and counted well by well, and the cell counts were compared with cell count of control which contained no test material. The cell count of control was approximately 8.6×10^5 /ml. In order to confirm the effects of the test materials, the same test was done with mitomycin C (MMC) or bleomycin (BLM). In the table below, T/C represents the ratio of count of the cells treated with the test material to that with no test material added. ID50 is the concentration of the test material required for decreasing concentration of the cells to 1/2 that of the control."}, "[2]": {"conditions": "dose 0.1 μg./kg. (so in the source)"}, "[3]": {"conditions": "dose 33 μg./kg. (so in the source)"}, "[4]": {"conditions": "dose 20 μg./kg. (so in the source)"}, "[5]": {"conditions": "Tables V/VII, mice, 1.5 mg./kg."}, "[6]": {"conditions": "dose 0.5 μg./kg. (so in the source)"}, "[7]": {"conditions": "dose 1.5 μg./kg. (so in the source)"}, "[8]": {"conditions": "dose 10 μg./kg. (so in the source)"}},
  "note": "Starred links: 1 amine or outer side, 2 acyl side, 3 side chain; linkers in the order of their positions; H or OH if unused. Positions of bridges follow the written chain, without caps; N, C: chain ends. Non-standard residues stand in square brackets, D forms with d. Residues, ends and D or L forms follow the SMILES beside them. Chains are numbered I, II in the order given. Actinocin(9to1) = Cc1c2oc3c(C)ccc(C(=O)[*:1])c3nc-2c(C(=O)[*:2])c(N)c1=O; NMeV = CN[C@H](C(=O)O)C(C)C; Sar = CNCC(=O)O",
  "data": [
    {"compound": "Cc1c2oc3c(C)ccc(C(=O)N[C@@H]4C(=O)N[C@H](C(C)C)C(=O)N5CCC[C@H]5C(=O)N(C)CC(=O)N(C)[C@@H](C(C)C)C(=O)O[C@@H]4C)c3nc-2c(C(=O)N[C@@H]2C(=O)N[C@H](C(C)C)C(=O)N3CCC[C@H]3C(=O)N(C)CC(=O)N(C)[C@@H](C(C)C)C(=O)O[C@@H]2C)c(N)c1=O", "note": "[ACD, actinomycin D] (I: T[dV]P[Sar][NMeV] / II: T[dV]P[Sar][NMeV]; ester I:1-I:C, II:1-II:C; linker I:N-II:N via Actinocin(9to1))", "values": [
      {"measurement": "Rating", "setting": "sarcoma 180 solid tumor; dose 0.1 mg./kg.", "value": "- (Ratios (T/C) of 100-71% were rated ineffective (-))"},
      {"measurement": "T/C (%)", "setting": "sarcoma 180 solid tumor; dose 0.1 mg./kg.", "value": 102.4, "unit": "%"},
      {"measurement": "Rating", "setting": "[1]; [2]", "value": "+++ (plus 3 (+++) when it was 10-0%)"},
      {"measurement": "T/C (%)", "setting": "[1]; [2]", "value": 0, "unit": "%"}
    ]},
    {"compound": "O=P1(N(CCCl)CCCl)NCCCO1", "note": "(stereo not drawn) [CYP, cyclophosphamide]", "values": [
      {"measurement": "Rating", "setting": "sarcoma 180 solid tumor; dose 33 mg./kg.", "value": "+++ (of 20-0% plus 3 (+++))"},
      {"measurement": "T/C (%)", "setting": "sarcoma 180 solid tumor; dose 33 mg./kg.", "value": 0, "unit": "%"},
      {"measurement": "Rating", "setting": "[1]; [3]", "value": "+++ (plus 3 (+++) when it was 10-0%)"},
      {"measurement": "T/C (%)", "setting": "[1]; [3]", "value": 0, "unit": "%"}
    ]},
    {"compound": "O=c1[nH]cc(F)c(=O)[nH]1", "note": "[Example 5-Fu, 5-fluorouracil]", "values": [
      {"measurement": "Rating", "setting": "sarcoma 180 solid tumor; dose 20 mg./kg.", "value": "+ (of 70-51% plus 1 (+))"},
      {"measurement": "T/C (%)", "setting": "sarcoma 180 solid tumor; dose 20 mg./kg.", "value": 47.8, "unit": "%"},
      {"measurement": "Rating", "setting": "[1]; [4]", "value": "+++ (plus 3 (+++) when it was 10-0%)"},
      {"measurement": "T/C (%)", "setting": "[1]; [4]", "value": 0, "unit": "%"}
    ]},
    {"compound": "CO[C@@]12[C@H](COC(N)=O)C3=C(C(=O)C(C)=C(N)C3=O)N1C[C@@H]1N[C@@H]12", "note": "[MMC, mitomycin C]", "values": [
      {"measurement": "Rating", "setting": "sarcoma 180 solid tumor; dose 0.5 mg./kg.", "value": "- (Ratios (T/C) of 100-71% were rated ineffective (-))"},
      {"measurement": "T/C (%)", "setting": "sarcoma 180 solid tumor; dose 0.5 mg./kg.", "value": 71.0, "unit": "%"},
      {"measurement": "Rating", "setting": "sarcoma 180 solid tumor; dose 1.5 mg./kg.", "value": "++ (of 50-21% plus 2 (++))"},
      {"measurement": "T/C (%)", "setting": "sarcoma 180 solid tumor; dose 1.5 mg./kg.", "value": 32.5, "unit": "%"},
      {"measurement": "Solid tumor Rating", "setting": "sarcoma 180 solid tumor; [5]", "value": "++ (of 50-21% plus 2 (++))"},
      {"measurement": "Solid tumor T/C", "setting": "sarcoma 180 solid tumor; [5]", "value": 38.9},
      {"measurement": "IC50", "setting": "mouse L-5178Y cells; Mus musculus, L5178Y, 48 h, read-out: ID50", "value": 0.09, "unit": "µg/mL"},
      {"measurement": "Rating", "setting": "[1]; [6]", "value": "+++ (plus 3 (+++) when it was 10-0%)"},
      {"measurement": "T/C (%)", "setting": "[1]; [6]", "value": 0, "unit": "%"},
      {"measurement": "Rating", "setting": "[1]; [7]", "value": "+++ (plus 3 (+++) when it was 10-0%)"},
      {"measurement": "T/C (%)", "setting": "[1]; [7]", "value": 0, "unit": "%"},
      {"measurement": "Ascites tumor Rating", "setting": "[1]; [5]", "value": "+++ (plus 3 (+++) when it was 10-0%)"},
      {"measurement": "Ascites tumor T/C", "setting": "[1]; [5]", "value": 0}
    ]},
    {"compound": "bleomycin [BLM]", "values": [
      {"measurement": "Rating", "setting": "sarcoma 180 solid tumor; dose 10 mg./kg.", "value": "++ (of 50-21% plus 2 (++))"},
      {"measurement": "T/C (%)", "setting": "sarcoma 180 solid tumor; dose 10 mg./kg.", "value": 43.5, "unit": "%"},
      {"measurement": "ID50", "setting": "mouse L-5178Y cells; 37° C., 2 days", "value": 7.8, "unit": "µg/mL"},
      {"measurement": "Rating", "setting": "[1]; [8]", "value": "+++ (plus 3 (+++) when it was 10-0%)"},
      {"measurement": "T/C (%)", "setting": "[1]; [8]", "value": 0, "unit": "%"}
    ]}
  ]
}
